The results in this text go back to patent publication US20260146035A1, “FUSED BICYCLIC COMPOUNDS AND THEIR USE AS MER AND AXL INHIBITORS” (DONG-A ST CO., LTD., priority 2022, published 2026).

The target of test [1] is T1, human TYRO3 (455-end) (Homo sapiens, UniProt Q06418).
T1 construct: TYRO3 (455-end); purchased SignalChem, Canada
T1 sequence (Q06418 455-890 limits assumed): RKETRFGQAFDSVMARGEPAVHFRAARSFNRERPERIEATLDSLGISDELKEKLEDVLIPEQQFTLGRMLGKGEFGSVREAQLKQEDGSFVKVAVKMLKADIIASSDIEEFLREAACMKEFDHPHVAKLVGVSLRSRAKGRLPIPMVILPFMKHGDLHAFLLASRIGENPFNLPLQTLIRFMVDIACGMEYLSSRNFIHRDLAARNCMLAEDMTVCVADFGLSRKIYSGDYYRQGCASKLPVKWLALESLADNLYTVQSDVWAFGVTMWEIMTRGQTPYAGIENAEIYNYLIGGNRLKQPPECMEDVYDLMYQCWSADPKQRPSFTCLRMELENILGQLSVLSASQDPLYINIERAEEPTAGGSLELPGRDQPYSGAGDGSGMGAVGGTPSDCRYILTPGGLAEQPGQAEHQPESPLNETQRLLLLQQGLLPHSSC
Kind of test: HTRF kinase activity biochemical assay, TYRO3. Particulars: 10 μM ATP, 30 minutes pre-incubation; read-out: HTRF TYRO IC50. Background: Time-resolved FRET reads energy transfer from a long-lived donor to a nearby acceptor.

The target of test [2] is T2, human MER (528-end) (Homo sapiens, UniProt Q12866).
T2 construct: human MER (528-end); purchased Camnabio, Japan
T2 sequence (Q12866 528-999 limits assumed): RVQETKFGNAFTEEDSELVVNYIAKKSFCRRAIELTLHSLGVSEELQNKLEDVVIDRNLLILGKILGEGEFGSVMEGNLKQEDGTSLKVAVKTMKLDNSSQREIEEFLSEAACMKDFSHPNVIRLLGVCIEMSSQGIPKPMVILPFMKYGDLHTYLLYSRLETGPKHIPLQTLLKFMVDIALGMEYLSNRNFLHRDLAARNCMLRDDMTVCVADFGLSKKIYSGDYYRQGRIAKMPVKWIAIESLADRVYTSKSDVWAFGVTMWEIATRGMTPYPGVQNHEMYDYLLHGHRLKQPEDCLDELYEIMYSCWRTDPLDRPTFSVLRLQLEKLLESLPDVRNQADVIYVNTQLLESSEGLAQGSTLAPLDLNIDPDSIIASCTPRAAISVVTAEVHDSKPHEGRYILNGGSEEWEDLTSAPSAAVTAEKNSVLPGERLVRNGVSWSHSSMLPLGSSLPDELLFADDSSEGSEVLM
Kind of test: HTRF kinase activity biochemical assay, MER. Particulars: 10 μM ATP, 30 minutes pre-incubation; read-out: HTRF MERTK IC50.

In test [3] the target is T3, human AXL (473-end) (Homo sapiens, UniProt P30530).
T3 construct: human AXL (473-end); purchased SignalChem, Canada
T3 sequence (P30530 473-894 limits assumed): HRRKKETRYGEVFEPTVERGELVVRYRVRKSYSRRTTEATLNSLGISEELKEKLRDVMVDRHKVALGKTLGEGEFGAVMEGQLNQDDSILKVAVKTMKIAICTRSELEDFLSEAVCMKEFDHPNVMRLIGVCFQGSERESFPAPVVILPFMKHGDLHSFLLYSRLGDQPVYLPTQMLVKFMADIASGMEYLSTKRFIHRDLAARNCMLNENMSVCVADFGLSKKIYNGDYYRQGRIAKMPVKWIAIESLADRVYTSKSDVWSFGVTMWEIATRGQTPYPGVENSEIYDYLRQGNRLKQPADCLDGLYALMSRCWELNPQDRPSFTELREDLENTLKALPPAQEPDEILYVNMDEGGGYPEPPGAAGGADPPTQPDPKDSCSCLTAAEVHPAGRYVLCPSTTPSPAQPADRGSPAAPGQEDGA
As to the kind of experiment: HTRF kinase activity biochemical assay, AXL. Particulars: 10 μM ATP, 30 minutes pre-incubation.

For orientation: IC50 means the concentration that inhibits the measured activity by half. With `Cn1cc(-c2cnc(N)c(C(=O)N[C@H]3CCC[C@@H]3OCc3ccc(-c4ccc5c(c4)CC(F)(F)C5N4CCN(CCO)CC4)cc3)c2)cn1` (stereo partly drawn) [Example 50, 2-amino-N-{(1S,2S)-2-[(4-{2,2-difluoro-1-[4-(2-hydroxyethyl)piperazin-1-yl]-2,3-dihydro-1H-inden-5-yl}phenyl)methoxy]cyclopentyl}-5-(1-methyl-1H-pyrazol-4-yl)pyridine-3-carboxamide], the IC50 in test [1] was 100 to 1000 nM; in test [2], under 10 nM; in test [3], under 10 nM.

On to `C=C(C)c1cnc(N)c(C(=O)N[C@H]2CCC[C@@H]2OCc2ccc(-c3ccc4c(c3)C(C)(C)CN4C3CCN(CCO)CC3)cc2)c1` [Example 51, 2-amino-N-{(1S,2S)-2-[(4-{1-[1-(2-hydroxyethyl)piperidin-4-yl]-3,3-dimethyl-2,3-dihydro-1H-indol-5-yl}phenyl)methoxy]cyclopentyl}-5-(prop-1-en-2-yl)pyridine-3-carboxamide], for which the 50% inhibitory concentration (IC50) in test [1], in test [2] and in test [3] was under 10 nM each time.

For `CC1(C)CN(C2CCN(CCO)CC2)c2ccc(-c3ccc(CO[C@H]4COC[C@@H]4NC(=O)c4nc(-c5ccc(F)nc5)cnc4N)cc3)cc21` [Example 52, 3-amino-6-(6-fluoropyridin-3-yl)-N-{(3S,4R)-4-[(4-{1-[1-(2-hydroxyethyl)piperidin-4-yl]-3,3-dimethyl-2,3-dihydro-1H-indol-5-yl}phenyl)methoxy]oxolan-3-yl}pyrazine-2-carboxamide], the values for the IC50 in test [1], in test [2] and in test [3] were 100 to 1000 nM, under 10 nM and 10 to 100 nM, respectively.

On to `Cn1cc(-c2cnc(N)c(C(=O)N[C@H]3CCC[C@@H]3OCc3ccc(-c4ccc5[nH]c(C(F)(F)F)cc5c4)cc3)c2)cn1` [Example 53, 2-amino-5-(1-methyl-1H-pyrazol-4-yl)-N-[(1S,2S)-2-({4-[2-(trifluoromethyl)-1H-indol-5-yl]phenyl}methoxy)cyclopentyl]pyridine-3-carboxamide], for which the half-maximal inhibitory concentration (IC50) was over 1000 nM in test [1], 100 to 1000 nM in test [2] and 100 to 1000 nM in test [3].

Turning to `Cc1cn(C)c2ccc(-c3ccc(CO[C@H]4CCC[C@@H]4NC(=O)c4cc(-c5cnn(C)c5)cnc4N)cc3)cc12` [Example 54, 2-amino-N-[(1S,2S)-2-{[4-(1,3-dimethyl-1H-indol-5-yl)phenyl]methoxy}cyclopentyl]-5-(1-methyl-1H-pyrazol-4-yl)pyridine-3-carboxamide], the IC50 is over 1000 nM in test [1], 10 to 100 nM in test [2] and 10 to 100 nM in test [3].

`Cc1[nH]c2ccc(-c3ccc(CO[C@H]4CCC[C@@H]4NC(=O)c4cc(-c5cnn(C)c5)cnc4N)cc3)cc2c1C` [Example 55, 2-amino-N-[(1S,2S)-2-{[4-(2,3-dimethyl-1H-indol-5-yl)phenyl]methoxy}cyclopentyl]-5-(1-methyl-1H-pyrazol-4-yl)pyridine-3-carboxamide]: the IC50 in test [1] is over 1000 nM; in test [2] it was 10 to 100 nM; in test [3], 10 to 100 nM.

`Cc1cc2cc(-c3ccc(CO[C@H]4CCC[C@@H]4NC(=O)c4cc(-c5cnn(C)c5)cnc4N)cc3)ccc2[nH]1` [Example 56, 2-amino-N-[(1S,2S)-2-{[4-(2-methyl-1H-indol-5-yl)phenyl]methoxy}cyclopentyl]-5-(1-methyl-1H-pyrazol-4-yl)pyridine-3-carboxamide]: the half-inhibitory concentration (IC50) is over 1000 nM in test [1], 10 to 100 nM in test [2] and 10 to 100 nM in test [3].

On to `Cn1cc(-c2cnc(N)c(C(=O)N[C@H]3CCC[C@@H]3OCc3ccc(-c4ccc5c(ccn5CCO)c4)cc3)c2)cn1` [Example 57, 2-amino-N-[(1S,2S)-2-({4-[1-(2-hydroxyethyl)-1H-indol-5-yl]phenyl}methoxy)cyclopentyl]-5-(1-methyl-1H-pyrazol-4-yl)pyridine-3-carboxamide], for which the IC50 was over 1000 nM in test [1], under 10 nM in test [2] and 10 to 100 nM in test [3].

For the compound `Cn1cc(-c2cnc(N)c(C(=O)N[C@H]3CCC[C@@H]3OCc3ccc(-c4ccc5c(ccn5CCC(=O)O)c4)cc3)c2)cn1` [Example 58, 3-{5-[4-({[(1S,2S)-2-{[2-amino-5-(1-methyl-1H-pyrazol-4-yl)pyridine-3-carbonyl]amino}cyclopentyl]oxy}methyl)phenyl]-1H-indol-1-yl}propanoic acid], the figures for the IC50 in test [1], in test [2] and in test [3] were over 1000 nM, 10 to 100 nM and 100 to 1000 nM, respectively.

As to `CC(C)n1ccc2cc(-c3ccc(CO[C@H]4CCC[C@@H]4NC(=O)c4cc(-c5cnn(C)c5)cnc4N)cc3)ccc21` [Example 60, 2-amino-5-(1-methyl-1H-pyrazol-4-yl)-N-[(1S,2S)-2-({4-[1-(propan-2-yl)-1H-indol-5-yl]phenyl}methoxy)cyclopentyl]pyridine-3-carboxamide], the IC50 in test [1] was over 1000 nM; in test [2], under 10 nM; in test [3], 10 to 100 nM.

For the compound `Cn1cc(-c2cnc(N)c(C(=O)N[C@H]3CCC[C@@H]3OCc3ccc(-c4ccc5c(ccn5CC(=O)O)c4)cc3)c2)cn1` [Example 61, {5-[4-({[(1S,2S)-2-{[2-amino-5-(1-methyl-1H-pyrazol-4-yl)pyridine-3-carbonyl]amino}cyclopentyl]oxy}methyl)phenyl]-1H-indol-1-yl}acetic acid], the concentration for half-maximal inhibition (IC50) in test [1] is over 1000 nM; in test [2], 10 to 100 nM; in test [3] it was 10 to 100 nM.

`Nc1ncc(-c2ccc(F)nc2)cc1C(=O)N[C@H]1CCC[C@@H]1OCc1ccc(-c2ccc3c(c2)CC(F)(F)C3N2CCN(CC(O)CO)CC2)cc1` (stereo partly drawn) [Example 62, 6-amino-N-{(1S,2S)-2-[(4-{1-[4-(2,3-dihydroxypropyl)piperazin-1-yl]-2,2-difluoro-2,3-dihydro-1H-inden-5-yl}phenyl)methoxy]cyclopentyl}-6′-fluoro[3,3′-bipyridine]-5-carboxamide]: the IC50 is over 1000 nM in test [1], under 10 nM in test [2] and under 10 nM in test [3].

For the compound `Cn1ccc(-c2cnc(N)c(C(=O)N[C@H]3CCC[C@@H]3OCc3ccc(-c4ccc5c(c4)CC(F)(F)C5N4CCN(CC(O)CO)CC4)cc3)c2)cc1=O` (stereo partly drawn) [Example 63, 6-amino-N-{(1S,2S)-2-[(4-{1-[4-(2,3-dihydroxypropyl)piperazin-1-yl]-2,2-difluoro-2,3-dihydro-1H-inden-5-yl}phenyl)methoxy]cyclopentyl}-1′-methyl-2′-oxo-1′,2′-dihydro[3,4′-bipyridine]-5-carboxamide], the IC50 was 100 to 1000 nM in test [1], under 10 nM in test [2] and under 10 nM in test [3].

`Cn1cc(-c2cnc(N)c(C(=O)N[C@H]3CCC[C@@H]3OCc3ccc(-c4ccc5c(ccn5C(F)F)c4)cc3)c2)cn1` [Example 64, 2-amino-N-[(1S,2S)-2-({4-[1-(difluoromethyl)-1H-indol-5-yl]phenyl}methoxy)cyclopentyl]-5-(1-methyl-1H-pyrazol-4-yl)pyridine-3-carboxamide]: the IC50 in test [1] was over 1000 nM; in test [2], under 10 nM; in test [3] it was 10 to 100 nM.

Consider `Cn1cc(-c2cnc(N)c(C(=O)N[C@H]3CCC[C@@H]3OCc3ccc(-c4ccc5c(c4)CC(F)(F)[C@@H]5N4CCN(CCO)CC4)cc3)c2)cn1` [Example 65, 2-amino-N-{(1S,2S)-2-[(4-{(1R)-2,2-difluoro-1-[4-(2-hydroxyethyl)piperazin-1-yl]-2,3-dihydro-1H-inden-5-yl}phenyl)methoxy]cyclopentyl}-5-(1-methyl-1H-pyrazol-4-yl)pyridine-3-carboxamide], for which the IC50 was 100 to 1000 nM in test [1], under 10 nM in test [2] and under 10 nM in test [3].
